Measurements as given in ChEMBL document CHEMBL4387769 (Bioorg Med Chem, 2019).

How the values were obtained:
[1] = biological target: T1, 5-hydroxytryptamine receptor 7 (Homo sapiens, UniProt P34969); experiment: Binding affinity to 5HT7 (unknown origin)
[2] = biological target: T1, 5-hydroxytryptamine receptor 7; experiment: Displacement of [3H]5-CT from human 5HT7 receptor expressed in COS7 cells incubated for 30 mins by liquid scintillation counting method; format: cell-based
D(2) dopamine receptor [3] = biological target: D(2) dopamine receptor (Rattus norvegicus, UniProt P61169); experiment: Displacement of [3H]spiperone from dopamine D2 receptor in Sprague-Dawley rat striatal membranes incubated for 40 mins; design: species or system Striatum, Membrane
Chain of D(2) dopamine receptor (Rattus norvegicus, UniProt P61169) (P61169 whole entry): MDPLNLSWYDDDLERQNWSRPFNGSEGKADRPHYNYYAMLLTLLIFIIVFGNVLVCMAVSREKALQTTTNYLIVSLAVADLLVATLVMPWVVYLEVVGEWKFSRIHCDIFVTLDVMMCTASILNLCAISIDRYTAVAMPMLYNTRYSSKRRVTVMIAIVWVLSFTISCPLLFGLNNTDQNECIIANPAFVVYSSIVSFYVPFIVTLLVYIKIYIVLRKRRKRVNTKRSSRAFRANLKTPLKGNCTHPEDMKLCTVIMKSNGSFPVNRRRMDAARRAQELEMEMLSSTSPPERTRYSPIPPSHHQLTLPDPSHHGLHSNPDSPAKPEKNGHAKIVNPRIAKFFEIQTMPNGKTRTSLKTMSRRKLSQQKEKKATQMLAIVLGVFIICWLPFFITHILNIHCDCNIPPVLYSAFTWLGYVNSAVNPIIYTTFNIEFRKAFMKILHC

[4] = biological target: 5-hydroxytryptamine receptor 2A (Rattus norvegicus, UniProt P14842); experiment: Displacement of [3H]ketanserin from 5HT2A receptor in rat cortical membranes incubated for 15 mins by liquid scintillation spectrometry; format: cell membranes
Chain of 5-hydroxytryptamine receptor 2A (Rattus norvegicus, UniProt P14842) (P14842 whole entry): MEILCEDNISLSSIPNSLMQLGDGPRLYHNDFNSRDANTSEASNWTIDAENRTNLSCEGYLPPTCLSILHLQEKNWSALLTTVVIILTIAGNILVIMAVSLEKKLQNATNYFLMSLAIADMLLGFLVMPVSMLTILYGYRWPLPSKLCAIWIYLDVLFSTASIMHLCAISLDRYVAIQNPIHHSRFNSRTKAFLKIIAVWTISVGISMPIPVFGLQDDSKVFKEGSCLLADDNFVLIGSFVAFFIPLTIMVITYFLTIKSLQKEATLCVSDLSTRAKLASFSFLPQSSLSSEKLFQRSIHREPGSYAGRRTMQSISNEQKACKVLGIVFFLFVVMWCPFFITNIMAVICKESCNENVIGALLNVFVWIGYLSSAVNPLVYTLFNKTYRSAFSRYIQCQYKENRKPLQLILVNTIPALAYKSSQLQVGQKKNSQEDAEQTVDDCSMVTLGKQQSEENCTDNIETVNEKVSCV

[5] = biological target: T2, 5-hydroxytryptamine receptor 1A (Homo sapiens, UniProt P08908); experiment: Displacement of [3H]-8-OH-DPAT from human 5HT1AR expressed in HEK293 cell membranes after 1 hr by microbeta plate reader method
T2 sequence (P08908 whole entry): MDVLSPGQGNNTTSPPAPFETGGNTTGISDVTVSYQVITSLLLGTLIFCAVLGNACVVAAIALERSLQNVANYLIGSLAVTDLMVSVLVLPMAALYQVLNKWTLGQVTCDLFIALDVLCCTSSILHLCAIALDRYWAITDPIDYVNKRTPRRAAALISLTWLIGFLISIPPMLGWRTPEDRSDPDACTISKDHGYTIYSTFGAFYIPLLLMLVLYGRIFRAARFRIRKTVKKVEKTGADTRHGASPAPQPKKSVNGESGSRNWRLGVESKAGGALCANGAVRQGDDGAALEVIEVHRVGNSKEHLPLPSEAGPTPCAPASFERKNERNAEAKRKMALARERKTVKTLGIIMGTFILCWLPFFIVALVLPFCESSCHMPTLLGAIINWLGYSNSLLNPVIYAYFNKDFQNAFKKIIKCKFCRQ

[6] = biological target: 5-hydroxytryptamine receptor 6 (Homo sapiens, UniProt P50406); experiment: Displacement of [3H]LSD from human 5HT6 receptor expressed in HEK293 cell membranes after 1 hr by microbeta plate reader method
Chain of 5-hydroxytryptamine receptor 6 (P50406 whole entry): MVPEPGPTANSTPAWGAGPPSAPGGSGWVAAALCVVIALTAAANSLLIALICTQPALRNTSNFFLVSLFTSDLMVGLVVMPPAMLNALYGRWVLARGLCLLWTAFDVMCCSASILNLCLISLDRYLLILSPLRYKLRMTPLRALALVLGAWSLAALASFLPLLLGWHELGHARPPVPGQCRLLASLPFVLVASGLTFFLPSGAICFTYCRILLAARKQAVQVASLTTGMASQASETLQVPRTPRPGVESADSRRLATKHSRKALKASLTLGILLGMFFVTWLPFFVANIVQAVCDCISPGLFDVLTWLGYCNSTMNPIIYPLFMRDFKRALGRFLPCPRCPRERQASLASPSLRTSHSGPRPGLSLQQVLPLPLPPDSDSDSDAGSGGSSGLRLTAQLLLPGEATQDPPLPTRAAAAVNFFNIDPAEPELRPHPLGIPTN

[7] = biological target: T1, 5-hydroxytryptamine receptor 7; experiment: Displacement of [3H]5-CT from human 5HT7B receptor expressed in HEK293 cell membranes after 1 hr by microbeta plate reader method
[8] = biological target: 5-hydroxytryptamine receptor 2A (Homo sapiens, UniProt P28223); experiment: Displacement of [3H]ketanserin from human 5HT2AR expressed in CHO-K1 cell membranes after 1 hr by microbeta plate reader method
Chain of 5-hydroxytryptamine receptor 2A (Homo sapiens, UniProt P28223) (P28223 whole entry): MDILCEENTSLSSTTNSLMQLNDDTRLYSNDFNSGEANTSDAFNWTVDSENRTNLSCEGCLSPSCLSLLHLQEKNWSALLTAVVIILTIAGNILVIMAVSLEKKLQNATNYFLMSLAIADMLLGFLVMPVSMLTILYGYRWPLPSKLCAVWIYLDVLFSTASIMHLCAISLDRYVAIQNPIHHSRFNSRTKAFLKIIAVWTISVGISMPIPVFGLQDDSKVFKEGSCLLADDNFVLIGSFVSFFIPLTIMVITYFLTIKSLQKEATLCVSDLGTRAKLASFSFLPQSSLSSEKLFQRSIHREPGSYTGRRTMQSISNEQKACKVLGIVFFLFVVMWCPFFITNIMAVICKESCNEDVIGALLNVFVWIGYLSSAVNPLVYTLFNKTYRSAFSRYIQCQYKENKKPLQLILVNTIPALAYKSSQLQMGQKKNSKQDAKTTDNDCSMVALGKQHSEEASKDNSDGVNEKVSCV

D(2) dopamine receptor [9] = biological target: D(2) dopamine receptor (Homo sapiens, UniProt P14416); experiment: Displacement of [3H]raclopride from human dopamine D2L receptor expressed in HEK293 cells incubated for 1 hr by microbeta plate reader method; format: cell-based
Chain of D(2) dopamine receptor (Homo sapiens, UniProt P14416) (P14416 whole entry): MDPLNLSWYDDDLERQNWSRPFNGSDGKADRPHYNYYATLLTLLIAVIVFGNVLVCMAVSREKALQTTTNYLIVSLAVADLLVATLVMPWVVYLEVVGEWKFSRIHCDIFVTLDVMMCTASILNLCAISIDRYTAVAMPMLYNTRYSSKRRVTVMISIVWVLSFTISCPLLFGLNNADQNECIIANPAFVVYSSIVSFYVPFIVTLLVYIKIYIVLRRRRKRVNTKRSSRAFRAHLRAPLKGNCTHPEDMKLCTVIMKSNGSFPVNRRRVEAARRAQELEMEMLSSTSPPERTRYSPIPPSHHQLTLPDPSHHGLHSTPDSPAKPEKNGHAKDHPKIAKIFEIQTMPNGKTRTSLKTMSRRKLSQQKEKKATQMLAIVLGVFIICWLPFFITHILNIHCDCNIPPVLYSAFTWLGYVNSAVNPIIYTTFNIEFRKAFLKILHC

T1 sequence (P34969 whole entry): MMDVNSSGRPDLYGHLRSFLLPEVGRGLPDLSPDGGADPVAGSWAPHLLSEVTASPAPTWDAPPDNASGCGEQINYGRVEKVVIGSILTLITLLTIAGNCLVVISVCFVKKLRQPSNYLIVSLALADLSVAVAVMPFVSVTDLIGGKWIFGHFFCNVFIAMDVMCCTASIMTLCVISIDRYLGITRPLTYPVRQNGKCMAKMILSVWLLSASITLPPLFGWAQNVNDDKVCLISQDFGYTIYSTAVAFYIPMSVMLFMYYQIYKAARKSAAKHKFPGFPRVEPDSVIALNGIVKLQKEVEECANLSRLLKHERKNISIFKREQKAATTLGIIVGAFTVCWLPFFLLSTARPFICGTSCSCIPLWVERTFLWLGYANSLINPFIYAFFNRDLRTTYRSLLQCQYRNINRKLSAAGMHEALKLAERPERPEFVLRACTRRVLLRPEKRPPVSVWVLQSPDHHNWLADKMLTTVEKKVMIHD

Row | Structure (SMILES) | Ki [1] | Ki [2] | Ki (D(2) dopamine receptor [3]) | Ki [4] | Ki [5] | Ki [6] | Ki [7] | Ki [8] | Ki (D(2) dopamine receptor [9])
1 | O=C1Nc2cccc3c2C1(CCCCN1CCN(c2ccccc2Cl)CC1)CCC3 (configuration not stated) |  | 12 nM |  |  |  |  |  |  | 
2 | O=S1(=O)c2cccc3cccc(c23)N1CCCN1CCN(c2cccc(F)c2)CC1 |  |  | > 1000 nM | 18 nM |  |  |  |  | 
3 | O=C1c2cccc3cccc(c23)N1CCCCCCN1CCN(c2ccc(Br)cc2)CC1 |  |  |  |  | 688 nM | 3190 nM | 1830 nM | 1490 nM | 204 nM
4 | O=C1c2cccc3cccc(c23)N1CCCCCCN1CCN(c2cccc(C(F)(F)F)c2)CC1 |  |  |  |  | 54 nM | 2210 nM | 291 nM | 773 nM | 496 nM
5 | O=C1c2cccc3cccc(c23)N1CCCCCCN1CCN(c2cccc(Cl)c2)CC1 |  |  |  |  | 43 nM | 480 nM | 53 nM | 429 nM | 75 nM
6 | O=C1c2cccc3cccc(c23)N1CCCCCCN1CCN(c2ccccc2F)CC1 |  |  |  |  | 64 nM | 1730 nM | 420 nM | 524 nM | 320 nM
7 | O=C1c2cccc3cccc(c23)N1CCCCCCN1CCN(c2ccc(C(F)(F)F)cc2)CC1 |  |  |  |  | 536 nM | 2040 nM | 49000 nM | 4350 nM | 945 nM
8 | O=C1c2cccc3cccc(c23)N1CCCCCCN1CCN(c2ccc(Cl)cc2)CC1 |  |  |  |  | 181 nM | 689 nM | 124 nM | 423 nM | 197 nM
9 | O=C1c2cccc3cccc(c23)N1CCCCCCN1CCN(c2ccccc2C(F)(F)F)CC1 |  |  |  |  | 599 nM | 1130 nM | 17800 nM | 1770 nM | 161 nM
10 | O=C1c2cccc3cccc(c23)N1CCCCCCN1CCN(c2ccc(Cl)c(Cl)c2)CC1 |  |  |  |  | 161 nM | 1860 nM | 166 nM | 493 nM | 246 nM
11 | COc1ccc(N2CCN(CCCCC34CCCc5cccc(c53)NC4=O)CC2)cc1 (configuration not stated) |  | 20 nM |  |  |  |  |  |  | 
12 | O=S1(=O)c2cccc3cccc(c23)N1CCCN1CCN(c2ccc(Br)cc2)CC1 |  |  | > 1000 nM | 7 nM |  |  |  |  | 
13 | O=S1(=O)c2cccc3cccc(c23)N1CCCN1CCN(c2ccc(F)cc2)CC1 [FANANSERIN] |  |  | > 1000 nM |  |  |  |  |  | 

Further lines, results first:

Row | Ki [1] | Ki [2] | Ki (D(2) dopamine receptor [3]) | Ki [4] | Ki [5] | Ki [6] | Ki [7] | Ki [8] | Ki (D(2) dopamine receptor [9]) | Structure (SMILES)
14 | 200 nM |  |  |  |  |  |  |  |  | COc1ccccc1N1CCN(CCCCCCN2c3cccc4cccc(c34)S2(=O)=O)CC1
15 | 200 nM |  |  |  |  |  |  |  |  | O=S1(=O)c2cccc3cccc(c23)N1CCCCCN1CCN(c2ccccc2)CC1
16 | 200 nM |  |  |  |  |  |  |  |  | COc1ccccc1N1CCN(CCCCN2c3cccc4cccc(c34)S2(=O)=O)CC1
17 | > 1000 nM |  |  |  |  |  |  |  |  | O=S1(=O)c2cccc3cccc(c23)N1CCCCCCN1CCN(c2ccccc2)CC1
18 | 1000 nM |  |  |  |  |  |  |  |  | O=S1(=O)c2cccc3cccc(c23)N1CCCCN1CCN(c2ccccc2)CC1
19 | 251 nM |  |  |  |  |  |  |  |  | COc1ccccc1N1CCN(CCCCCN2c3cccc4cccc(c34)S2(=O)=O)CC1
20 |  |  |  |  | 197 nM | 433 nM | 280 nM | 147 nM | 336 nM | O=S1(=O)c2cccc3cccc(c23)N1CCCCCCN1CCN(c2ccc(Cl)cc2)CC1
21 |  |  |  |  | 132 nM | 374 nM | 167 nM | 596 nM | 304 nM | O=S1(=O)c2cccc3cccc(c23)N1CCCCCCN1CCN(c2cccc(C(F)(F)F)c2)CC1
22 |  |  |  |  | 149 nM | 237 nM | 140 nM | 177 nM | 220 nM | O=S1(=O)c2cccc3cccc(c23)N1CCCCCCN1CCN(c2cccc(Cl)c2Cl)CC1
23 |  |  |  |  | 46 nM | 624 nM | 432 nM | 322 nM | 121 nM | O=S1(=O)c2cccc3cccc(c23)N1CCCCCCN1CCN(c2cccc(Cl)c2)CC1
24 |  |  |  |  | 106 nM | 507 nM | 286 nM | 548 nM | 142 nM | O=S1(=O)c2cccc3cccc(c23)N1CCCCCCN1CCN(c2ccccc2Cl)CC1
25 |  |  |  |  | 989 nM | 937 nM | 6000 nM | 1530 nM | 927 nM | O=S1(=O)c2cccc3cccc(c23)N1CCCCCCN1CCN(c2ccc(C(F)(F)F)cc2)CC1
26 |  |  |  |  | 79 nM | 225 nM | 404 nM | 251 nM | 254 nM | O=S1(=O)c2cccc3cccc(c23)N1CCCCCCN1CCN(c2ccc(Cl)c(Cl)c2)CC1
27 |  |  |  |  | 81 nM | 710 nM | 203 nM | 376 nM | 90 nM | O=S1(=O)c2cccc3cccc(c23)N1CCCCCCN1CCN(c2ccccc2F)CC1
28 |  |  |  |  | 122 nM | 918 nM | 5100 nM | 406 nM | 94 nM | O=C1c2cccc3cccc(c23)N1CCCCCCN1CCN(c2cccc(Cl)c2Cl)CC1
29 |  |  |  |  | 66 nM | 1680 nM | 336 nM | 540 nM | 58 nM | O=C1c2cccc3cccc(c23)N1CCCCCCN1CCN(c2ccccc2Cl)CC1
30 |  |  | > 1000 nM | 5 nM |  |  |  |  |  | O=S1(=O)c2cccc3cccc(c23)N1CCCN1CCN(c2ccc(Cl)cc2)CC1
31 |  |  | > 1000 nM | 3 nM |  |  |  |  |  | O=S1(=O)c2cccc3cccc(c23)N1CCCN1CCN(c2ccccc2F)CC1
